molecular target: T1, Zcchc11 enzyme (Homo sapiens, UniProt Q5TAX3); assay: TUTase assay (Zcchc11 assay, Lin28a-dependent polyuridylation of pre-let-7); type: biochemical; details: LIN28A 10 nM, Zcchc11 0.2 nM, 5′-fluorescein pre-let-7 miRNA 2 nM, UTP 5 uM, room temperature, 30 minutes pre-incubation; read-out: Potency Lin28a-dep Z11 IC50
T1 construct: made in house; host or cells: HEK293 cells (Zcchc11); E. coli Rosetta II (LIN28A)
T1 sequence (Q5TAX3 212-1420): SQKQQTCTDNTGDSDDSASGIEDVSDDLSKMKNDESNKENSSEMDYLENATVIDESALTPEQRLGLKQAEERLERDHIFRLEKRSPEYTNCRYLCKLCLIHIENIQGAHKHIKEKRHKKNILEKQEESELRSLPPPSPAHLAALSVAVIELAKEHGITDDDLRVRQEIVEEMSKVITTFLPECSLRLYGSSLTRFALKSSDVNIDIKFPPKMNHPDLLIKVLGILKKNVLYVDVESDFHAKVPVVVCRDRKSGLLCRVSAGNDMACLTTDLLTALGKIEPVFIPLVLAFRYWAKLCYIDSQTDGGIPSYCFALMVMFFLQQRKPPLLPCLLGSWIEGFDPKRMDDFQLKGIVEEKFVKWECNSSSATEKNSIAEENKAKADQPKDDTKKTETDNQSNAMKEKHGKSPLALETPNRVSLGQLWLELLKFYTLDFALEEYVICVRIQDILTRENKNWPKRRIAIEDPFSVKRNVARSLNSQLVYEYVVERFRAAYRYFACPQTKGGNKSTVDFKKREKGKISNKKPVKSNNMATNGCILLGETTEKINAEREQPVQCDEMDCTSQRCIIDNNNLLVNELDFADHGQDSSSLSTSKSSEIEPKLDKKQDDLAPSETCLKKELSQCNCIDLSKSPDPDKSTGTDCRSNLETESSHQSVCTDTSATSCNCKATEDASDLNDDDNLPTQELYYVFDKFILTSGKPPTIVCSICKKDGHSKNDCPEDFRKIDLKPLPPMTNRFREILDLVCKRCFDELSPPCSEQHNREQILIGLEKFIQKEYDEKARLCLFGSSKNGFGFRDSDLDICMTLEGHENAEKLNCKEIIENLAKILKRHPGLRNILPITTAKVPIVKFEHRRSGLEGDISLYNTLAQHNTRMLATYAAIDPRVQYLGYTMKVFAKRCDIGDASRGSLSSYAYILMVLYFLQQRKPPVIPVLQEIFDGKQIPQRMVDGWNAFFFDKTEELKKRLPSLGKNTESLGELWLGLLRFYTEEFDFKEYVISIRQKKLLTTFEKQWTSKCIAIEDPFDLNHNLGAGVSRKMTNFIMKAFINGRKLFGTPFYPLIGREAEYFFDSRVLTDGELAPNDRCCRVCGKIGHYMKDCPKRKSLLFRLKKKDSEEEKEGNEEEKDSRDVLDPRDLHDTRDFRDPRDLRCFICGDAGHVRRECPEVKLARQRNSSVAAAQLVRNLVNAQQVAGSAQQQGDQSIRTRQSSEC
Summary of the method: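 Human Zcchc11 residues 212-1420 (HEK293-expressed, MBP tag cleaved, C-terminal FLAG) at 0.2 nM, with 10 nM full-length human LIN28A and 2 nM 5′-fluorescein pre-let-7, preincubated with compound 30 min at room temperature. Reaction started with 5 uM UTP plus 4 nM 3′-rhodamine A20 quench probe; fluorescein loss read kinetically, IC50 from initial rates.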

Row | IC50 [µM] | Compound
1 | ≤ 1 | O=C(O)c1cn(-c2ccc3c(c2)COC3)c2cc(N3CCC[C@@H]3COc3ncccc3Cl)c(Cl)cc2c1=O [Example 18, (R)-6-chloro-7-(2-(((3-chloropyridin-2-yl)oxy)methyl)pyrrolidin-1-yl)-1-(1,3-dihydroisobenzofuran-5-yl)-4-oxo-1,4-dihydroquinoline-3-carboxylic acid]

same assay, conditions: Lin28a-dependent Zcchc11 (Z11) TUTase activity; read-out: Potency Lin28a-dep Z11 IC50

Row | IC50 [µM] | Compound
2 | ≤ 1 | CN(C)C1CN(c2ccc(-n3cc(C(=O)O)c(=O)c4cc(Cl)c(N5CCC6CC65COc5ncccc5Cl)cc43)cn2)C1 (stereo not drawn) [Compound 170, 6-chloro-7-(1-(((3-chloropyridin-2-yl)oxy)methyl)-2-azabicyclo [3.1.0]hexan-2-yl)-1-(6-(3-(dimethyl-amino)azetidin-1-yl)pyridin-3-yl)-4-oxo-1,4-dihydro-quinoline-3-carboxylic acid]
3 | ≤ 1 | CN(C)C1CN(c2ccc(-n3cc(C(=O)O)c(=O)c4cc(Cl)c(N5CCC[C@@H]5COc5cnccc5Cl)cc43)cn2)C1 [Compound 320, 6-Chloro-7-[(2R)-2-[[(4 chloropyridin-3-yl)oxy]methyl]pyrrolidin-1-yl]-1-[6-[3-(dimethyl-amino)azetidin-1-yl]pyridin-3-yl]-4-oxoquinoline-3-carboxylic acid]
4 | ≤ 1 | COCCOc1cnc(-n2cc(C(=O)O)c(=O)c3cc(F)c(N4CCC[C@@H]4COc4ncccc4C)cc32)cn1 [Compound 125, (R)-6-fluoro-1-(5-(2-methoxyethoxy)pyrazin-2-yl)-7-(2-(((3-methylpyridin-2-yl)oxy)methyl)pyrrolidin-1-yl)-4-oxo-1,4-dihydro-quinoline-3-carboxylic acid]
5 | ≤ 1 | CN(C)C1CN(c2ccc(-n3cc(C(=O)O)c(=O)c4cc(Cl)c(N5C6CC6C[C@@H]5COc5nc(OC6CC6)ccc5Cl)cc43)cn2)C1 (stereo partly drawn) [Compound 271, 6-chloro-7-((3R)-3-(((3-chloro-6-cycloprop-oxypyridin-2-yl)oxy)methyl)-2-azabicyclo [3.1.0]hexan-2-yl)-1-(6-(3-(dimethyl-amino)azetidin-1-yl)pyridin-3-yl)-4-oxo-1,4-dihydro-quinoline-3-carboxylic acid]
6 | ≤ 1 | COc1ccc(Cl)c(OC[C@H]2CC(c3ccc(O)nc3)CN2c2cc3c(cc2Cl)c(=O)c(C(=O)O)cn3-c2ccc(N3CC(N(C)C)C3)nc2)n1 (mixture of isomers) [Compound 225, Rac-6-chloro-7-((2R)-2-(((3-chloro-6-methoxy-pyridin-2-yl)oxy)methyl)-4-(6-hydroxy-pyridin-3-yl)pyrrolidin-1-yl)-1-(6-(3-(dimethyl-amino)azetidin-1-yl)pyridin-3-yl)-4-oxo-1,4-dihydro-quinoline-3-carboxylic acid]
7 | ≤ 1 | CN(C)C1CN(c2ccc(-n3cc(C(=O)O)c(=O)c4cc(C#N)c(N5CCC[C@@H]5COc5ncccc5Cl)nc43)cn2)C1 [Compound 250, 7-[(2R)-2-[[(3-chloropyridin-2-yl)oxy]methyl]pyrrolidin-1-yl]-6-cyano-1-[6-[3-(dimethyl-amino)azetidin-1-yl]pyridin-3-yl]-4-oxo-1,8-naphthyridine-3-carboxylic acid]

same assay, conditions: Lin28a-dependent Zcchc11 (Z11) TUTase assay; read-out: Potency Lin28a-dep Z11 IC50

Row | IC50 [µM] | Compound
8 | ≤ 1 | COc1ccc(C)c(OC[C@H]2C[C@H]3C[C@H]3N2c2cc3c(cc2Cl)c(=O)c(C(=O)O)cn3-c2ccc(N3CC(N(C)C)C3)nc2)n1 [Example 676, 6-chloro-1-(6-(3-(dimethylamino)azetidin-1-yl)pyridin-3-yl)-7-((1R,3R,5R)-3-(((6-methoxy-3-methylpyridin-2-yl)oxy)methyl)-2-azabicyclo[3.1.0]hexan-2-yl)-4-oxo-1,4-dihydroquinoline-3-carboxylic acid]
9 | ≤ 1 | Cc1cccnc1OC[C@H]1CCCN1c1cc2c(cc1Cl)c(=O)c(C(=O)O)cn2-c1ccc2[nH]cnc2c1 [Example 444, (R)-1-(1H-benzo[d]imidazol-5-yl)-6-chloro-7-(2-(((3-methylpyridin-2-yl)oxy)methyl)pyrrolidin-1-yl)-4-oxo-1,4-dihydroquinoline-3-carboxylic acid]
10 | ≤ 1 | CN(C)C1CN(c2ccc(-n3cc(C(=O)O)c(=O)c4cc(Cl)c(N5CC[C@@H](F)[C@@H]5COc5ncccc5Cl)cc43)cn2)C1 [Example 664, 6-chloro-7-((2S,3R)-2-(((3-chloropyridin-2-yl)oxy)methyl)-3-fluoropyrrolidin-1-yl)-1-(6-(3-(dimethylamino)azetidin-1-yl)pyridin-3-yl)-4-oxo-1,4-dihydroquinoline-3-carboxylic acid]
11 | ≤ 1 | O=C(O)c1cn(-c2ccc(NS(=O)(=O)C3CC3)cc2)c2cc(N3CCC[C@@H]3COc3ncccc3Cl)c(Cl)cc2c1=O [Example 472, 6-chloro-7-[(2R)-2-{[(3-chloropyridin-2-yl)oxy)methyl}pyrrolidin-1-yl]-1-(4-cyclopropane-sulfonamido-phenyl)-4-oxo-1,4-dihydroquinoline-3-carboxylic acid]
12 | ≤ 1 | O=C(O)c1cn(-c2cccnn2)c2cc(N3CCC[C@@H]3COc3ncccc3Cl)c(Cl)cc2c1=O [Example 498, (R)-6-chloro-7-(2-(((3-chloropyridin-2-yl)oxy)methyl)pyrrolidin-1-yl)-4-oxo-1-(pyridazin-3-yl)-1,4-dihydroquinoline-3-carboxylic acid]
13 | 1 to 10 | CN(C)C1CN(c2ncc(-n3cc(C(=O)O)c(=O)c4cc(Cl)c(N5CCC[C@]5(C)COc5ncccc5Cl)nc43)cn2)C1 [Example 622, (R)-6-chloro-7-(2-(((3-chloropyridin-2-yl)oxy)methyl)-2-methylpyrrolidin-1-yl)-1-(2-(3-(dimethylamino)azetidin-1-yl)pyrimidin-5-yl)-4-oxo-1,4-dihydro-1,8-naphthyridine-3-carboxylic acid]
14 | ≤ 1 | O=C(O)c1cn(-c2ccnc(N3CCC3)c2)c2nc(N3CCC[C@@H]3COc3ncccc3Cl)c(Cl)cc2c1=O [Example 543, (R)-1-(2-(azetidin-1-yl)pyridin-4-yl)-6-chloro-7-(2-(((3-chloropyridin-2-yl)oxy)methyl)pyrrolidin-1-yl)-4-oxo-1,4-dihydro-1,8-naphthyridine-3-carboxylic acid]
15 | ≤ 1 | CN(C)C1CN(c2ccc(-n3cc(C(=O)O)c(=O)c4cc(Cl)c(N5CCC[C@@H]5COc5nc6nc[nH]c6cc5Cl)cc43)cn2)C1 [Example 652, (R)-6-chloro-7-(2-(((6-chloro-3H-imidazo[4,5-b]pyridin-5-yl)oxy)methyl)pyrrolidin-1-yl)-1-(6-(3-(dimethylamino)azetidin-1-yl)pyridin-3-yl)-4-oxo-1,4-dihydroquinoline-3-carboxylic acid]
16 | ≤ 1 | Cc1nc2cc(-n3cc(C(=O)O)c(=O)c4cc(Cl)c(N5CCC[C@@H]5COc5ncccc5Cl)cc43)ncc2[nH]1 [Example 616, (R)-6-chloro-7-(2-(((3-chloropyridin-2-yl)oxy)methyl)pyrrolidin-1-yl)-1-(2-methyl-3H-imidazo[4,5-c]pyridin-6-yl)-4-oxo-1,4-dihydroquinoline-3-carboxylic acid]
17 | 1 to 10 | Cc1ccc(-n2cc(C(=O)O)c(=O)c3cc(F)c(N4CCC[C@@H]4COc4ccccn4)cc32)c(C)c1 [Example 394, (R)-1-(2,4-dimethylphenyl)-6-fluoro-4-oxo-7-(2-((pyridin-2-yloxy)methyl)pyrrolidin-1-yl)-1,4-dihydroquinoline-3-carboxylic acid]
18 | ≤ 1 | CS(=O)(=O)Nc1ccc(-n2cc(C(=O)O)c(=O)c3cc(F)c(N4CCC[C@@H]4COc4ccccn4)cc32)cc1 [Example 371, (R)-6-fluoro-1-(4-(methyl-sulfonamido)phenyl)-4-oxo-7-(2-((pyridin-2-yloxy)methyl)pyrrolidin-1-yl)-1,4-dihydro-quinoline-3-carboxylic acid]
